Data reported in PubChem BioAssay AID651630 (Sanford-Burnham Center for Chemical Genomics, 2012).
Calls of active or inactive are those of the source.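 Rule for the calls: active = lipid-stain IC50 at or below a set limit, with nuclear-stain toxicity IC50 at least five times higher; inactive = the rest.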

How the values were obtained:
TAG = assay: triacylglycerol accumulation inhibitor potency, dose response, cell-based, panel, Nile Red and DAPI fluorescence, H9c2 (AID 651630); conditions: H9c2 cells, Nile Red TAG fluorescence, oleic acid;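 note: cells exposed to compound overnight before fixation and staining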
DAPI = assay: as above; conditions: H9c2 cells, DAPI nuclear fluorescence (cytotoxicity counter-readout), oleic acid

Compound	IC50 (TAG; mean of runs)	IC50 (TAG; run 1)	IC50 (TAG; run 2)	IC50 cytotoxicity (DAPI nuclear signal decrease) (DAPI; mean of runs)	IC50 cytotoxicity (DAPI nuclear signal decrease) (DAPI; run 1)	IC50 cytotoxicity (DAPI nuclear signal decrease) (DAPI; run 2)
Cc1noc(C)c1-c1ccc2ncnc(NCC3CCCCN3C)c2c1 (configuration not stated)	> 25 µM (inactive)	> 25 µM	> 25 µM	> 25 µM (inactive)	> 25 µM	> 25 µM
CCCCCc1cc(=O)oc2c(C(CCN(CC)CC)c3ccc(OC)cc3)c(OC)cc(OC)c12 (configuration not stated)	> 25 µM (inactive)	> 25 µM	> 25 µM	> 25 µM (inactive)	> 25 µM	> 25 µM
CNC(=O)c1ccc(-c2sc3nc(N4CCOCC4)c4c(c3c2N)CCCC4)o1	6.57 µM	5.49 µM	7.64 µM	> 25 µM (inactive)	> 25 µM	> 25 µM
CN=C1c2cc3cc(OC)ccc3n2CCN1Cc1ccccc1	10.6 µM	9.62 µM	11.7 µM	> 25 µM (inactive)	> 25 µM	> 25 µM
Cc1cccc(C(=O)N[C@H](C(=O)Nc2ncc(C)s2)C(C)C)c1	9.36 µM	9.74 µM	8.97 µM		22.9 µM	> 25 µM
CCOc1ccc(CCNC(=O)CN2CCN(Cc3ccccc3C)C2=O)cc1OCC	2.19 µM	1.85 µM	2.54 µM		> 25 µM	> 25 µM
Cc1cccc2sc(NC(=O)C3CCCN(S(=O)(=O)c4cccc5nonc45)C3)nc12 (configuration not stated)	10.5 µM	12.2 µM	8.72 µM	> 25 µM (inactive)	> 25 µM	> 25 µM
CCCCCc1cc(=O)oc2c(C(CCN(CC)CC)c3cc(OC)c(OC)c(OC)c3)c(OC)cc(OC)c12 (configuration not stated)	> 25 µM (inactive)	> 25 µM	> 25 µM	> 25 µM (inactive)	> 25 µM	> 25 µM
O=C1c2ccccc2C(=O)c2c1ccc(C(=O)N1CCCCC1)c2NCCO	3.42 µM	3.47 µM	3.38 µM		> 25 µM	> 25 µM
O=C(Nc1ccc(S(=O)(=O)N2CCOCC2)cc1)c1ccc([N+](=O)[O-])s1	10.9 µM	13.1 µM	8.75 µM	> 25 µM (inactive)	> 25 µM	> 25 µM
CCOC(=O)c1c(NC(C)=O)sc2c(OCC(O)CN(CC)CC)c(Br)ccc12 (configuration not stated)		> 25 µM	22.1 µM	> 25 µM (inactive)	> 25 µM	> 25 µM
CN(C)c1ccc(NC(=O)Nc2nc(C(N)C3CCCCC3)cs2)cc1 (configuration not stated)	> 25 µM (inactive)	> 25 µM	> 25 µM	> 25 µM (inactive)	> 25 µM	> 25 µM
COc1cc(OC)c2c(-c3ccccc3)cc(=O)oc2c1C(CCN1CCCCC1)c1ccc(N(C)C)cc1 (configuration not stated)		9.65 µM	> 25 µM		15.9 µM	> 25 µM
CCN1C(=O)[C@H]2[C@@H](c3ccc(-c4ccccc4)c(OC)c3)N[C@@](CC(C)C)(C(=O)OC)[C@H]2C1=O	10.3 µM	12.4 µM	8.14 µM	> 25 µM (inactive)	> 25 µM	> 25 µM
O=C(N/N=C/c1cn(-c2ccccc2)nc1-c1cc2ccccc2o1)c1c[nH]c2ccccc12	13.1 µM	14.7 µM	11.5 µM	> 25 µM (inactive)	> 25 µM	> 25 µM
CC(=O)OC12COC1CC(O)C1(C)C(=O)C(O)C3=C(C)C(O)CC(O)(C(OC(=O)c4ccccc4)C21)C3(C)C (configuration not stated)	9.4 µM	9.73 µM	9.07 µM	> 25 µM (inactive)	> 25 µM	> 25 µM
CCOc1ccc(CN(C)C(=O)CCl)cc1		> 25 µM	22.6 µM	> 25 µM (inactive)	> 25 µM	> 25 µM
C=CC[C@@H](CC(=O)N(CCO)Cc1ccccc1)C(=O)N[C@H](COC(=O)[C@@H](CC=C)CC(=O)OC(C)(C)C)C(C)(C)C	3.39 µM	4.3 µM	2.48 µM		> 25 µM	> 25 µM
CCOC(=O)[C@H]1[C@H]2COc3ccc(Cl)cc3[C@@H]2N2C(=O)c3cc(Cl)ccc3NC(=O)[C@@]12C	9.03 µM	11.6 µM	6.41 µM	> 25 µM (inactive)	> 25 µM	> 25 µM
CCC(=NCCc1c(C)[nH]c2ccc(OC(F)(F)F)cc12)C1=C(O)CC(c2ccccc2)CC1=O (configuration not stated)	> 25 µM (inactive)	> 25 µM	> 25 µM	> 25 µM (inactive)	> 25 µM	> 25 µM
CN(C)CC(O)c1ccc(C=Cc2ccc(Cl)cc2)cc1 (configuration not stated)	13.8 µM	11.6 µM	16.1 µM	> 25 µM (inactive)	> 25 µM	> 25 µM
O=C(NC1CCCCC1)C(c1ccccc1)N(Cc1ccc2c(c1)OCO2)C(=O)c1cnsn1 (configuration not stated)	18.7 µM (inactive)	17.2 µM	20.2 µM	> 25 µM (inactive)	> 25 µM	> 25 µM

Second part, led by results:

IC50 (TAG; mean of runs)	IC50 (TAG; run 1)	IC50 (TAG; run 2)	Compound	IC50 cytotoxicity (DAPI nuclear signal decrease) (DAPI; mean of runs)	IC50 cytotoxicity (DAPI nuclear signal decrease) (DAPI; run 1)	IC50 cytotoxicity (DAPI nuclear signal decrease) (DAPI; run 2)
12.5 µM	10.6 µM	14.4 µM	CN(C)CCNC(=O)c1cccc2ccc(-c3ccc(-c4ccccc4)cc3)nc12	> 25 µM (inactive)	> 25 µM	> 25 µM
13.3 µM	15.9 µM	10.7 µM	CC(=O)Nc1ccc(-c2ccnc3c2CC(C(=O)NCc2cccc(Cl)c2)O3)cc1 (configuration not stated)	> 25 µM (inactive)	> 25 µM	> 25 µM
> 25 µM (inactive)	> 25 µM	> 25 µM	COc1ccc(S(=O)(=O)N(C)C[C@@H]2OCCCC[C@H](C)Oc3ccc(NC(=O)Nc4ccc(C(F)(F)F)cc4)cc3C(=O)N([C@H](C)CO)C[C@H]2C)cc1	> 25 µM (inactive)	> 25 µM	> 25 µM
> 25 µM (inactive)	> 25 µM	> 25 µM	CC(C)(Oc1ccc(Cl)cc1)C(=O)Nc1ccc2oc(-c3ccncc3)nc2c1	> 25 µM (inactive)	> 25 µM	> 25 µM
	> 25 µM	4.64 µM	COc1ccc(-c2cc(C(=O)Nc3cc(OC)cc(C(=O)Nc4cccc(C(F)(F)F)c4)c3)[nH]n2)cc1	> 25 µM (inactive)	> 25 µM	> 25 µM
	20.2 µM	> 25 µM	C[C@H]1CN([C@@H](C)CO)C(=O)c2cc(NC(=O)Nc3cccc4ccccc34)ccc2O[C@@H]1CN(C)Cc1ccc(-c2ccccc2)cc1	> 25 µM (inactive)	> 25 µM	> 25 µM
16.5 µM (inactive)	10.9 µM	22.2 µM	C=C1c2nc3ccccc3n2C=C(c2ccc(C)cc2)N1c1ccccc1	> 25 µM (inactive)	> 25 µM	> 25 µM
8.69 µM	8.01 µM	9.36 µM	CN(C)CCNC=C(C(=O)Nc1ccc(Cl)cc1Cl)C(=O)Nc1ccc(Cl)cc1Cl		20.8 µM	> 25 µM
18.5 µM (inactive)	18 µM	18.9 µM	COc1ccc(NC(=O)C2(C)Cc3c(-c4cccc(C(N)=O)c4)ccnc3O2)cn1 (configuration not stated)	> 25 µM (inactive)	> 25 µM	> 25 µM
> 25 µM (inactive)	> 25 µM	> 25 µM	CC(=O)c1cccc(-c2ccnc3c2CC(C(=O)NCc2ccco2)O3)c1 (configuration not stated)	> 25 µM (inactive)	> 25 µM	> 25 µM
5.67 µM	6.89 µM	4.44 µM	O=C(c1cc(-c2ccncc2)nc2c(Cl)cccc12)N1CCN(c2ccccc2F)CC1	> 25 µM (inactive)	> 25 µM	> 25 µM
> 25 µM (inactive)	> 25 µM	> 25 µM	Cc1ccc(-c2nn(-c3ccccc3)cc2NC(=O)CCl)cc1		20.6 µM	> 25 µM
